Reference: ChEMBL document CHEMBL1275599, “Comparison of in vitro activities of fluoroquinolone-like 2,4- and 1,3-diones” (Antimicrob Agents Chemother, 2010)
Converted amounts (≈) assume the structure as drawn.

Experiments:
[1] = Inhibition of DNA supercoiling activity of Escherichia coli DNA gyrase
[2] = Inhibition of DNA decatenation activity of Escherichia coli DNA topoisomerase 4
DNA gyrase subunit A [3] = target: DNA gyrase subunit A (Escherichia coli K-12, UniProt P0AES4, S83W); assay: Inhibition of DNA supercoiling activity of Escherichia coli DNA gyrase gyrA S83W mutant
DNA gyrase subunit A [4] = target: DNA gyrase subunit A (Escherichia coli K-12, UniProt P0AES4, A67S); assay: Inhibition of DNA supercoiling activity of Escherichia coli DNA gyrase gyrA A67S mutant
DNA gyrase subunit A [5] = target: DNA gyrase subunit A (Escherichia coli K-12, UniProt P0AES4, G81C); assay: Inhibition of DNA supercoiling activity of Escherichia coli DNA gyrase gyrA G81C mutant
Escherichia coli [6] = assay: Selectivity ratio of IC50 for Escherichia coli DNA gyrase gyrA S83W mutant to IC50 for Escherichia coli wild-type DNA gyrase
Escherichia coli [7] = assay: Selectivity ratio of IC50 for Escherichia coli DNA gyrase gyrA G81C mutant to IC50 for Escherichia coli wild-type DNA gyrase
Escherichia coli [8] = assay: Selectivity ratio of IC50 for Escherichia coli DNA gyrase gyrA A67S mutant to IC50 for Escherichia coli wild-type DNA gyrase
Escherichia coli [9] = assay: Ratio of CC3 for Escherichia coli DNA gyrase gyrA S83W mutant to CC3 for Escherichia coli wild-type DNA gyrase
Escherichia coli [10] = assay: Ratio of CC3 for Escherichia coli DNA gyrase gyrA A67S mutant to CC3 for Escherichia coli wild-type DNA gyrase
Escherichia coli [11] = assay: Ratio of CC3 for Escherichia coli DNA gyrase gyrA G81C mutant to CC3 for Escherichia coli wild-type DNA gyrase
Escherichia coli [12] = assay: Antimicrobial activity against Escherichia coli; type: functional
DNA gyrase = DNA gyrase (Staphylococcus aureus, UniProt P0A0K8+P20831); assay: Inhibition of DNA supercoiling activity of Staphylococcus aureus DNA gyrase; type: protein-complex assay
[13] = Inhibition of DNA decatenation activity of Staphylococcus aureus DNA topoisomerase 4
Escherichia coli [14] = assay: Selectivity index, ratio of IC50 for Escherichia coli Topoisomerase 4 to IC50 for Escherichia coli DNA gyrase
Staphylococcus aureus = assay: Selectivity index, ratio of IC50 for Staphylococcus aureus Topoisomerase 4 to IC50 for Staphylococcus aureus DNA gyrase

Compound	IC50 [1] [nM]	IC50 [2] [nM]	IC50 (DNA gyrase subunit A [3]) [nM]	IC50 (DNA gyrase subunit A [4]) [nM]	IC50 (DNA gyrase subunit A [5]) [nM]	Ratio IC50 (Escherichia coli [6])	Ratio IC50 (Escherichia coli [7])	Ratio IC50 (Escherichia coli [8])	Ratio (Escherichia coli [9])	Ratio (Escherichia coli [10])	Ratio (Escherichia coli [11])	MIC (Escherichia coli [12]) [µg/mL]	IC50 (DNA gyrase) [nM]	IC50 [13] [nM]	Ratio IC50 (Escherichia coli [14])	Ratio IC50 (Staphylococcus aureus)
CC[C@@H]1CCN(c2c(F)cc3c(=O)n(N)c(=O)n(C4CC4)c3c2OC)C1	2800	16000	5900	2400	4300	2.1	1.5	0.86	2.1	1.7	2.3	2.5 (≈ 6.9 µM)	2300	5500	5.7	2.4
O=C(O)c1cn(C2CC2)c2cc(N3CCNCC3)c(F)cc2c1=O [CIPROFLOXACIN]	450	15900	–	–	–	–	–	–	–	–	–	–	–	8800	–	–
CC[C@@H]1CCN(c2c(F)cn3c(=O)n(N)c(=O)c(C4CC4)c3c2OC)C1	11000	163000	67000	19000	31000	6.1	2.8	1.7	3.4	1.5	2.3	–	36500	48000	14.8	1.3
CC[C@@H]1CCN(c2c(F)cc3c(=O)n(N)c(=O)n(C4CC4)c3c2C)C1	950	6000	3800	1200	1700	4	1.8	1.3	5.6	2.5	3.1	–	1600	880	6.3	1.8
CC[C@@H]1CCN(c2c(F)cc3c(=O)c(C(=O)O)cn(C4CC4)c3c2OC)C1	160	1700	1400	120	1200	8.8	7.5	0.75	6.5	1.5	13	0.004 (≈ 0.0107 µM)	1100	500	10.6	2.2
